Measured values published in ChEMBL document CHEMBL1131068, “Synthesis and pharmacological evaluation of N,N'-diarylguanidines as potent sodium channel blockers and anticonvulsant agents” (J Med Chem, 1998).
pIC50: −log10 of the molar value.

Tests used:
[1] = Prevention of seizures induced by loud -high frequency sounds in the DBA/2 mouse after 20 mg/kg ip administration; type: functional; settings: route intraperitoneal
Glutamate NMDA receptor = assay: Displacement of [3H]MK-801 from rat brain membrane N-methyl-D-aspartate glutamate receptor
[2] = target: Sodium channel protein type 2 subunit alpha (Rattus norvegicus, UniProt P04775); assay: Sodium channel block, determined by % block of [14C]guanidinium flux in CHO line expressing rat type IIA sodium channels derived from rat brain
Sodium channel protein type 2 subunit alpha, sequence (P04775 whole entry): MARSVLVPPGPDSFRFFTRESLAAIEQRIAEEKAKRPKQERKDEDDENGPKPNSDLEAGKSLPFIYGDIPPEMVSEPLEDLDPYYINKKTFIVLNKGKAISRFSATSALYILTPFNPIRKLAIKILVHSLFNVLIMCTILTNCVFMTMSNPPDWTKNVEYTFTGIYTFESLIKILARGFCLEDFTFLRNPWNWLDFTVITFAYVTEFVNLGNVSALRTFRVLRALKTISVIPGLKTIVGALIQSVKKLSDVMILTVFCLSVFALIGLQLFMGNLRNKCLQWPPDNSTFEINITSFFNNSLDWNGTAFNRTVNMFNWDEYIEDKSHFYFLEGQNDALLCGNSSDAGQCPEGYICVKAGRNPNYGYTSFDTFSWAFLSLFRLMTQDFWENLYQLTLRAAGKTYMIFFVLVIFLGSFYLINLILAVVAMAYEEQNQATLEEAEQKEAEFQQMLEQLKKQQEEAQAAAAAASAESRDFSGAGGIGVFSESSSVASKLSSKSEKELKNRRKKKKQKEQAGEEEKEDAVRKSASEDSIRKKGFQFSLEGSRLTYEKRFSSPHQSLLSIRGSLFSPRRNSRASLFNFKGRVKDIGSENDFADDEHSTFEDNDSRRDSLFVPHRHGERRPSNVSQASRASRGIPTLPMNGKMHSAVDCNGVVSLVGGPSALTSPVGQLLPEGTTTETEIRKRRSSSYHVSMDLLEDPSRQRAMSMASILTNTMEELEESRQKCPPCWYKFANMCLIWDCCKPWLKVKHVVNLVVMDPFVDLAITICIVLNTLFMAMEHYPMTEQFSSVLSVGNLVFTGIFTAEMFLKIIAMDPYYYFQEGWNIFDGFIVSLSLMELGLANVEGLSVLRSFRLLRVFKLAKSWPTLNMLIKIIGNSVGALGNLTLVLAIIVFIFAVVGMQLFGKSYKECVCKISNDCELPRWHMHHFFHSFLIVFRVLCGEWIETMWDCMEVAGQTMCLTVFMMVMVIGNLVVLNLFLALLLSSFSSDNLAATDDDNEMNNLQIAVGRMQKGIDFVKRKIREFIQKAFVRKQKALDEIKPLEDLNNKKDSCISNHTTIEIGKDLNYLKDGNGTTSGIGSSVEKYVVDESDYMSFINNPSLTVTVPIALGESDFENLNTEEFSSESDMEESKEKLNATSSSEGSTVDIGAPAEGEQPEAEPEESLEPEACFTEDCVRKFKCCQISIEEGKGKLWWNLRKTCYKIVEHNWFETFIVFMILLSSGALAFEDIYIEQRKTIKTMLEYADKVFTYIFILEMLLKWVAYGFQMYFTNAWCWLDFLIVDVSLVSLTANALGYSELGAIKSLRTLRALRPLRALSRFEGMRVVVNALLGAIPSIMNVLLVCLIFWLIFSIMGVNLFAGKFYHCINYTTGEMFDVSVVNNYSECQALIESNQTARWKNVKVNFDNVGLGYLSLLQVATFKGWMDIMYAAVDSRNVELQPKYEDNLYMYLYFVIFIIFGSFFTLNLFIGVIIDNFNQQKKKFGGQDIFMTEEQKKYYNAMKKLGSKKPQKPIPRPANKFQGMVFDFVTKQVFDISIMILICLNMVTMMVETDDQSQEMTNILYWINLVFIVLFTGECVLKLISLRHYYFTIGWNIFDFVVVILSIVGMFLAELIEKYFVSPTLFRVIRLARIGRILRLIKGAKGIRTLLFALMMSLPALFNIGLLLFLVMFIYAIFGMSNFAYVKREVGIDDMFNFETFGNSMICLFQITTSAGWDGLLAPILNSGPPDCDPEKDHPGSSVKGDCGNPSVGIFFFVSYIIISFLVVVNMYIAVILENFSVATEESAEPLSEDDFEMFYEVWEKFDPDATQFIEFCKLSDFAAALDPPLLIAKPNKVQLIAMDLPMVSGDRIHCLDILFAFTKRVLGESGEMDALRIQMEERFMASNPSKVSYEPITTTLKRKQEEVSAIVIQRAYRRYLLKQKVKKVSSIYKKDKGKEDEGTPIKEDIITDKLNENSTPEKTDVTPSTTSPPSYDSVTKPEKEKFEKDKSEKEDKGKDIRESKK

physchem = settings: octanol/15 mM HEPES/135 mM NaCl, pH 7.4
Description: Partition coefficient (logD7.4) (octanol/15 mM HEPES/135 mM NaCl at pH 7.4)

Mus musculus = assay: The in vivo inhibitory activity of compound was measured as effectiveness in preventing seizures induced by loud -high frequency sounds in the DBA/2 mouse after 25 mg/kg ip administration.; type: functional; settings: route intraperitoneal

Row | pIC50 (Glutamate NMDA receptor) | pIC50 [2] | logD (physchem) | SMILES | inhibition in vivo at 20 mg/kg [1] [%] | inhibition in vivo at 25 mg/kg (Mus musculus) [%]
1 | 5.46 | 6.72 | 3.52 | CCCCOc1ccc(N=C(N)Nc2ccc(OCCCC)cc2)cc1 | 52 | 
2 | 5.40 | 6.85 |  | CCCCc1ccc(NC(N)=Nc2ccc(OCc3ccccc3)cc2)cc1 | 40 | 
3 | 5.48 | 6.89 | 4.1 | CCCCc1ccc(N=C(N)Nc2ccc(CCCC)cc2)cc1 |  | 82
4 |  | 6.08 | 4.18 | NC(=Nc1ccc(Sc2ccccc2)cc1)Nc1ccc(Sc2ccccc2)cc1 |  | 
5 | 4.99 | 5.04 | 0.7 | Cc1ccc(N=C(N)Nc2ccc(C)cc2)cc1 | 43 | 
6 |  | 5.75 | 1.72 | CCCCOc1ccc(NC(=N)Nc2ccc(CCCCO)cc2)cc1 | 11 | 
7 | 5.10 | 5.86 | 1.7 | CCc1ccc(NC(=N)Nc2ccc(CC)cc2)cc1 | 100 | 
8 |  | 6.07 | 3.13 | NC(=Nc1ccc(-c2ccccc2)cc1)Nc1ccc(-c2ccccc2)cc1 |  | 
9 | 4.75 | 6.34 | 2.72 | CC(C)c1ccc(NC(=N)Nc2ccc(C(C)C)cc2)cc1 | 85 | 
10 |  | 6.17 | 3.31 | CCC(C)c1ccc(NC(N)=Nc2ccc3c4c(cccc24)CC3)cc1 (stereo not given) | 33 | 
11 |  | 6.37 | 3.55 | NC(=Nc1ccc(Oc2ccccc2)cc1)Nc1ccc(Oc2ccccc2)cc1 | 21 | 
12 | 5.00 |  | 3.94 | CCC(C)c1ccc(NC(=N)Nc2ccc(C(C)CC)cc2)cc1 (stereo not given) | 69 | 
13 |  |  |  | Nc1nc2ccc(OC(F)(F)F)cc2s1 [RILUZOLE] | 92 | 
14 |  | 5.09 | 0.047 | NC(=Nc1ccc(CCCCO)cc1)Nc1ccc(CCCCO)cc1 | 0 | 
15 | < 5.11 | 5.81 | 3.65 | CC(C)(C)c1ccc(NC(=N)Nc2ccc(C(C)(C)C)cc2)cc1 | 60 | 
16 | 5.66 | 6.96 | 3.46 | CC(C)(C)c1ccc(NC(=N)Nc2ccc(OCc3ccccc3)cc2)cc1 | 27 | 
17 | 5.11 | 6.08 | 6.07 | CCCCCCc1ccc(N=C(N)Nc2ccc(CCCCCC)cc2)cc1 | 79 | 
18 | 5.60 |  | 2.7 | COc1ccc(/N=C(\N)Nc2ccc3c4c(cccc24)CC3)c2ccccc12 | 50 | 

Row | SMILES | pIC50 (Glutamate NMDA receptor) | pIC50 [2] | logD (physchem) | inhibition in vivo at 20 mg/kg [1] [%] | inhibition in vivo at 25 mg/kg (Mus musculus) [%]
19 | CN1CCN(c2ncc(-c3cc(Cl)cc(Cl)c3Cl)c(N)n2)CC1 [SIPATRIGINE] |  |  | 3.39 | 66 | 
